Assays:
[1] = test system: normal human breast cells (MCF-10A); assay: Antiproliferative activity / cytotoxicity by sulforhodamine B assay in MCF-10A cells; type: cell-based; details: MCF-10A normal human breast cells, 24 hours exposure, triplicate
Experimental: (§1) The ligands and corresponding metal complexes were investigated for their cytotoxicity against MCF-7 (breast cancer) cells and MCF-10A (normal human breast) cells. Cells were cultured in 96-well culture plates and exposed to 12.5 μg ml^−1, 25 μg ml^−1, 50 μg ml^−1 and 100 μg ml^−1 concentrations of ligands and complexes for 24 hours and cytotoxicity was assessed by sulforhodamine B assay. All exposures were carried out in triplicate. Briefly, the cell supernatant was completely removed and washed with phosphate buffer solution. Trichloroacetic acid (50%, […]) was added on top of fetal bovine serum-free fresh medium (200 μl) to make final concentration of 10% trichloroacetic acid and was incubated at 4 °C for one hour prior to the SRB assay. The plates were then washed with five washing cycles with water and dried completely. An aliquot of 100 μl of 0.4% sulforhodamine B dissolved in 1% trichloroacetic acid, was added to each well, and was allowed to stain for 15 minutes. The plates were again washed with five washing cycles to remove unbound dye using 1% (vol/vol) acetic acid after removing the stain. The protein bound dye was solubilized with trisbase (10 mM, pH 7.5, 200 μl), after air drying. The plates were then shaken for 60 minutes to homogenize the dye solution. The absorbance was then measured at 540 nm using Synergy HTBioTek microplate reader. The percentage viability was calculated by the equation given below.1 [drawing 1]
(§2) Three ligands and three novel complexes were assayed for their antiproliferative activity in human breast cancer cells (MCF-7) and normal human breast cells (MCF-10A). In this study, the cell lines were exposed to synthesized compounds in a concentration gradient up to […] and the half maximal inhibitory concentration (IC50) was determined for each compound. Cytotoxicity was measured with sulforhodamine B assay.

[2] = test system: human breast cancer cells (MCF-7); assay: Antiproliferative activity / cytotoxicity by sulforhodamine B assay in MCF-7 cells; type: cell-based; details: for IC50: MCF7, MCF-7 human breast cancer cells, 24 hours exposure, sulforhodamine B assay, triplicate
Experimental: as §1, §2

Q: For O=S(=O)(N1CCCCC1)N(Cc1ccccn1)Cc1ccccn1 [N(SO2pip)dpa], which IC50 [1] is on record?
A: The IC50 was 948.5 ± 0.04 µM.

Q: What about the IC50 [2] of the same compound?
A: The IC50 was 21.2 ± 0.1 µM.

Q: O=S(=O)(c1ccc2ccccc2c1)N(Cc1ccccn1)Cc1ccccn1 [N(SO2(2-nap))dpa] was tested. Which IC50 [1] did it give?
A: The IC50 was 581 ± 0.04 µM.

Q: And the IC50 [2]?
A: The IC50 was 18.1 ± 0.1 µM.

Q: Which results are given for O=S(=O)(c1cccc2ccccc12)N(Cc1ccccn1)Cc1ccccn1 [N(SO2(1-nap))dpa]?
A: IC50 [1]: 1583 ± 0.04 µM; shape of cytotoxicity curve ([2]; Fig. S3, IC50 graphs against MCF-7): biphasic cytotoxicity curve; IC50 [2]: 92 ± 0.06 µM

Source: paper PMC9033217, “Synthesis, characterization and biological evaluation of dipicolylamine sulfonamide derivatized platinum complexes as potential anticancer agents” (RSC Advances, 2021)
